Reference: US20240270762A1, “PENICILLIN-BINDING PROTEIN INHIBITORS” (priority 2021, published 2024)

Target: T1, A. baumannii PBP1a (Acinetobacter baumannii, UniProt A0ABX6CK30)
T1 sequence (A0ABX6CK30 1-851): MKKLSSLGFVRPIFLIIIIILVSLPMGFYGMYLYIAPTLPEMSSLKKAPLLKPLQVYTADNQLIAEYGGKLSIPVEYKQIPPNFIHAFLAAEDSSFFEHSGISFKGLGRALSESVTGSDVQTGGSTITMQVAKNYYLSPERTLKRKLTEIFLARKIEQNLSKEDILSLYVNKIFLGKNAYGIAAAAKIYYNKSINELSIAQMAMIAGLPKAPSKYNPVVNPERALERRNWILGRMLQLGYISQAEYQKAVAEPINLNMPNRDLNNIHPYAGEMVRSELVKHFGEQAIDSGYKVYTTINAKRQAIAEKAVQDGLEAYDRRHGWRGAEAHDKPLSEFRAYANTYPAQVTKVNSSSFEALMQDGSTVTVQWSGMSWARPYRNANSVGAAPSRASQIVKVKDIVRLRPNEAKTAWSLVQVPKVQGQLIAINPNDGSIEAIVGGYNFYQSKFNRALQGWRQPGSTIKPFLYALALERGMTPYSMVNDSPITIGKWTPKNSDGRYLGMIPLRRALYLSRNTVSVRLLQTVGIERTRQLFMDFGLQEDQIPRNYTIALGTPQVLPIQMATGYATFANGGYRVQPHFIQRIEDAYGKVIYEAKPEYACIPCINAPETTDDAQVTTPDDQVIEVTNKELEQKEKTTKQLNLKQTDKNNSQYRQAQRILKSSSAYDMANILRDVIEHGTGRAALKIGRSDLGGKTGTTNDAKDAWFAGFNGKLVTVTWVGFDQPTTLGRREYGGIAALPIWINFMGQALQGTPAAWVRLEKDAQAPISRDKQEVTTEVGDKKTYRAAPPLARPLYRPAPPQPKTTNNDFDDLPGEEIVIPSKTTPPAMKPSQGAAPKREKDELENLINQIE
Assay: Bocillin-FL competition binding via gel filtration, A. baumannii PBP1a
Settings: competition binding assay using Bocillin-FL via gel filtration; read-out: A. baumannii PBP1a Potency
In short: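 Competitive equilibrium binding with Bocillin-FL reporter: PBP pre-incubated with inhibitor dilutions, Bocillin-FL added, 15 min incubation. Labelled enzyme isolated by size-exclusion spin plates, fluorescence measured; EC50 obtained by fitting bound fraction against inhibitor concentration with a Hill-coefficient model.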

Row | Compound | EC50 [µM]
1 | O=C(NCCCN1CCN(C(=O)NC(C(=O)N[C@H]2Cc3ccc(F)c(C(=O)O)c3OB2O)c2cc(F)c(O)c(O)c2Cl)C(=O)C1=O)c1cc(O)c(F)c(O)c1F (stereo partly drawn) [Example 415, (3R)-3-(2-(2-chloro-5-fluoro-3,4-dihydroxyphenyl)-2-(4-(3-(2,4-difluoro-3,5-dihydroxybenzamido)propyl)-2,3-dioxopiperazine-1-carboxamido)acetamido)-7-fluoro-2-hydroxy-3,4-dihydro-2H-benzo[e][1,2]oxaborinine-8-carboxylic acid] | < 10
2 | O=C(NCCCN1CCN(C(=O)NC(C(=O)N[C@H]2Cc3ccc(F)c(C(=O)O)c3OB2O)c2cc(F)c(O)c(O)c2Cl)C(=O)C1=O)c1cc(O)c(F)c(O)c1 (stereo partly drawn) [Example 416, (3R)-3-(2-(2-chloro-5-fluoro-3,4-dihydroxyphenyl)-2-(4-(3-(4-fluoro-3,5-dihydroxybenzamido)propyl)-2,3-dioxopiperazine-1-carboxamido)acetamido)-7-fluoro-2-hydroxy-3,4-dihydro-2H-benzo[e][1,2]oxaborinine-8-carboxylic acid] | < 10
3 | O=C(NCCCN1CCN(C(=O)NC(C(=O)N[C@H]2Cc3ccc(F)c(C(=O)O)c3OB2O)c2cc(F)c(O)c(O)c2Cl)C(=O)C1=O)c1ccc(O)c(F)c1Cl (stereo partly drawn) [Example 418, (3R)-3-(2-(4-(3-(2-chloro-3-fluoro-4-hydroxybenzamido)propyl)-2,3-dioxopiperazine-1-carboxamido)-2-(2-chloro-5-fluoro-3,4-dihydroxyphenyl)acetamido)-7-fluoro-2-hydroxy-3,4-dihydro-2H-benzo[e][1,2]oxaborinine-8-carboxylic acid] | < 10
4 | O=C(NCCCN1CCN(C(=O)NC(C(=O)N[C@H]2Cc3ccc(F)c(C(=O)O)c3OB2O)c2cc(F)c(O)c(O)c2Cl)C(=O)C1=O)c1ccc(O)c(Cl)c1F (stereo partly drawn) [Example 419, (3R)-3-(2-(4-(3-(3-chloro-2-fluoro-4-hydroxybenzamido)propyl)-2,3-dioxopiperazine-1-carboxamido)-2-(2-chloro-5-fluoro-3,4-dihydroxyphenyl)acetamido)-7-fluoro-2-hydroxy-3,4-dihydro-2H-benzo[e][1,2]oxaborinine-8-carboxylic acid] | < 10
5 | O=C(NCCCN1CCN(C(=O)NC(C(=O)N[C@H]2Cc3ccc(F)c(C(=O)O)c3OB2O)c2cc(F)c(O)c(O)c2Cl)C(=O)C1=O)c1c(F)cc(O)cc1Cl (stereo partly drawn) [Example 421, (3R)-3-(2-(2-chloro-5-fluoro-3,4-dihydroxyphenyl)-2-(4-(3-(2-chloro-6-fluoro-4-hydroxybenzamido)propyl)-2,3-dioxopiperazine-1-carboxamido)acetamido)-7-fluoro-2-hydroxy-3,4-dihydro-2H-benzo[e][1,2]oxaborinine-8-carboxylic acid] | < 10
6 | O=C(NCCCN1CCN(C(=O)N[C@@H](C(=O)N[C@H]2Cc3ccc(F)c(C(=O)O)c3OB2O)c2cc(F)c(O)c(O)c2Cl)C(=O)C1=O)c1cc(F)c(O)c(F)c1 [Example 422, (R)-3-((R)-2-(2-chloro-5-fluoro-3,4-dihydroxyphenyl)-2-(4-(3-(3,5-difluoro-4-hydroxybenzamido)propyl)-2,3-dioxopiperazine-1-carboxamido)acetamido)-7-fluoro-2-hydroxy-3,4-dihydro-2H-benzo[e][1,2]oxaborinine-8-carboxylic acid] | < 10
7 | O=C(NCCCN1CCN(C(=O)NC(C(=O)N[C@H]2Cc3ccc(F)c(C(=O)O)c3OB2O)c2cc(F)c(O)c(O)c2Cl)C(=O)C1=O)c1cc(O)cc(O)c1 (stereo partly drawn) [Example 423, (3R)-3-(2-(2-chloro-5-fluoro-3,4-dihydroxyphenyl)-2-(4-(3-(3,5-dihydroxybenzamido)propyl)-2,3-dioxopiperazine-1-carboxamido)acetamido)-7-fluoro-2-hydroxy-3,4-dihydro-2H-benzo[e][1,2]oxaborinine-8-carboxylic acid] | < 10
8 | O=C(O)c1c(F)ccc2c1OB(O)[C@@H](NC(=O)C(NC(=O)N1CCN(C3CCN(C(=O)Nc4cccc(O)c4)CC3)C(=O)C1=O)c1cc(F)c(O)c(O)c1Cl)C2 (stereo partly drawn) [Example 424, (3R)-3-(2-(2-chloro-5-fluoro-3,4-dihydroxyphenyl)-2-(4-(1-((3-hydroxyphenyl)carbamoyl)piperidin-4-yl)-2,3-dioxopiperazine-1-carboxamido)acetamido)-7-fluoro-2-hydroxy-3,4-dihydro-2H-benzo[e][1,2]oxaborinine-8-carboxylic acid] | < 10
9 | O=C(O)c1c(F)ccc2c1OB(O)[C@@H](NC(=O)C(NC(=O)N1CCN(C3CCN(C(=O)c4cncc(O)c4)CC3)C(=O)C1=O)c1cc(F)c(O)c(O)c1Cl)C2 (stereo partly drawn) [Example 425, (3R)-3-(2-(2-chloro-5-fluoro-3,4-dihydroxyphenyl)-2-(4-(1-(5-hydroxynicotinoyl)piperidin-4-yl)-2,3-dioxopiperazine-1-carboxamido)acetamido)-7-fluoro-2-hydroxy-3,4-dihydro-2H-benzo[e][1,2]oxaborinine-8-carboxylic acid] | 10 to 50
10 | O=C(O)c1c(F)ccc2c1OB(O)[C@@H](NC(=O)C(NC(=O)N1CCN(C3CCN(C(=O)c4ccc(O)cc4)CC3)C(=O)C1=O)c1cc(F)c(O)c(O)c1Cl)C2 (stereo partly drawn) [Example 427, (3R)-3-(2-(2-chloro-5-fluoro-3,4-dihydroxyphenyl)-2-(4-(1-(4-hydroxybenzoyl)piperidin-4-yl)-2,3-dioxopiperazine-1-carboxamido)acetamido)-7-fluoro-2-hydroxy-3,4-dihydro-2H-benzo[e][1,2]oxaborinine-8-carboxylic acid] | < 10
11 | O=C(O)c1c(F)ccc2c1OB(O)[C@@H](NC(=O)C(NC(=O)N1CCN(C3CCN(S(=O)(=O)c4cccc(O)c4)CC3)C(=O)C1=O)c1cc(F)c(O)c(O)c1Cl)C2 (stereo partly drawn) [Example 428, (3R)-3-(2-(2-chloro-5-fluoro-3,4-dihydroxyphenyl)-2-(4-(1-((3-hydroxyphenyl)sulfonyl)piperidin-4-yl)-2,3-dioxopiperazine-1-carboxamido)acetamido)-7-fluoro-2-hydroxy-3,4-dihydro-2H-benzo[e][1,2]oxaborinine-8-carboxylic acid] | < 10
12 | O=C(O)c1c(F)ccc2c1OB(O)[C@@H](NC(=O)C(NC(=O)N1CCN(C3CCN(S(=O)(=O)c4ccc(O)cc4)CC3)C(=O)C1=O)c1cc(F)c(O)c(O)c1Cl)C2 (stereo partly drawn) [Example 429, (3R)-3-(2-(2-chloro-5-fluoro-3,4-dihydroxyphenyl)-2-(4-(1-((4-hydroxyphenyl)sulfonyl)piperidin-4-yl)-2,3-dioxopiperazine-1-carboxamido)acetamido)-7-fluoro-2-hydroxy-3,4-dihydro-2H-benzo[e][1,2]oxaborinine-8-carboxylic acid] | < 10
13 | O=C(O)c1c(F)ccc2c1OB(O)[C@@H](NC(=O)C(NC(=O)N1CCN(C3CCN(C(=O)Cc4cccc(O)c4)CC3)C(=O)C1=O)c1cc(F)c(O)c(O)c1Cl)C2 (stereo partly drawn) [Example 474, (3R)-3-(2-(2-chloro-5-fluoro-3,4-dihydroxyphenyl)-2-(4-(1-(2-(3-hydroxyphenyl)acetyl)piperidin-4-yl)-2,3-dioxopiperazine-1-carboxamido)acetamido)-7-fluoro-2-hydroxy-3,4-dihydro-2H-benzo[e][1,2]oxaborinine-8-carboxylic acid] | 10 to 50
14 | O=C(O)c1c(F)ccc2c1OB(O)[C@@H](NC(=O)C(NC(=O)N1CCN(CC3CCN(C(=O)c4cccc(O)c4)CC3)C(=O)C1=O)c1cc(F)c(O)c(O)c1Cl)C2 (stereo partly drawn) [Example 475, (3R)-3-(2-(2-chloro-5-fluoro-3,4-dihydroxyphenyl)-2-(4-((1-(3-hydroxybenzoyl)piperidin-4-yl)methyl)-2,3-dioxopiperazine-1-carboxamido)acetamido)-7-fluoro-2-hydroxy-3,4-dihydro-2H-benzo[e][1,2]oxaborinine-8-carboxylic acid] | 10 to 50
15 | O=C(O)c1c(F)ccc2c1OB(O)[C@@H](NC(=O)C(NC(=O)N1CCN(C3CCN(C(=O)c4ccc(O)cc4O)CC3)C(=O)C1=O)c1cc(F)c(O)c(O)c1Cl)C2 (stereo partly drawn) [Example 476, (3R)-3-(2-(2-chloro-5-fluoro-3,4-dihydroxyphenyl)-2-(4-(1-(2,4-dihydroxybenzoyl)piperidin-4-yl)-2,3-dioxopiperazine-1-carboxamido)acetamido)-7-fluoro-2-hydroxy-3,4-dihydro-2H-benzo[e][1,2]oxaborinine-8-carboxylic acid] | 10 to 50
16 | O=C(O)c1c(F)ccc2c1OB(O)[C@@H](NC(=O)C(NC(=O)N1CCN(CC3CCN(C(=O)Nc4cccc(O)c4)CC3)C(=O)C1=O)c1cc(F)c(O)c(O)c1Cl)C2 (stereo partly drawn) [Example 477, (3R)-3-(2-(2-chloro-5-fluoro-3,4-dihydroxyphenyl)-2-(4-((1-((3-hydroxyphenyl)carbamoyl)piperidin-4-yl)methyl)-2,3-dioxopiperazine-1-carboxamido)acetamido)-7-fluoro-2-hydroxy-3,4-dihydro-2H-benzo[e][1,2]oxaborinine-8-carboxylic acid] | 10 to 50
